The assay concerns P388 leukemia ip, CD2F1 mice, survival T/C. Nature of the assay: NCI In Vivo Anticancer Drug Screen. Data for tumor model P388 Leukemia (intraperitoneal) in CD2F1 (CDF1) mice. As to conditions: endpoint: median survival time, higher = longer survival. The gist of the method: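 Mice carrying the transplanted tumor received test compound or vehicle. Survival was recorded in each group, and the value is the treated-group measurement divided by that of the vehicle-treated control group.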

[1] abbreviates: dose: 25.0 mg/kg/injection, schedule: Q01DX009 (ip), vehicle: saline.
Setting [2] is: dose: 50.0 mg/kg/injection, schedule: Q01DX009 (ip), vehicle: saline.
The mark [3] stands for this setting: dose: 100.0 mg/kg/injection, schedule: Q01DX009 (ip), vehicle: saline.
[4] abbreviates: dose: 200.0 mg/kg/injection, schedule: Q01DX009 (ip), vehicle: saline.
Where [5] appears, read: dose: 100.0 mg/kg/injection, schedule: Q01DX001 (ip), vehicle: Klucel (hydroxypropylcellulose) (HPC).
The mark [6] stands for this setting: dose: 200.0 mg/kg/injection, schedule: Q01DX001 (ip), vehicle: Klucel (hydroxypropylcellulose) (HPC).
Setting [7] is: dose: 400.0 mg/kg/injection, schedule: Q01DX001 (ip), vehicle: Klucel (hydroxypropylcellulose) (HPC).
[8] abbreviates: dose: 50.0 mg/kg/injection, schedule: Q01DX005 (ip), vehicle: Klucel (hydroxypropylcellulose) (HPC).
Setting [9] is: dose: 100.0 mg/kg/injection, schedule: Q01DX005 (ip), vehicle: Klucel (hydroxypropylcellulose) (HPC).
The mark [10] stands for this setting: dose: 200.0 mg/kg/injection, schedule: Q01DX005 (ip), vehicle: Klucel (hydroxypropylcellulose) (HPC).
[11] abbreviates: dose: 50.0 mg/kg/injection, schedule: Q01DX009 (ip), vehicle: Klucel (hydroxypropylcellulose) (HPC).
Where [12] appears, read: dose: 100.0 mg/kg/injection, schedule: Q01DX009 (ip), vehicle: Klucel (hydroxypropylcellulose) (HPC).
The mark [13] stands for this setting: dose: 50.0 mg/kg/injection, schedule: Q01DX005 (ip), vehicle: saline with Tween-80.
[14] abbreviates: dose: 100.0 mg/kg/injection, schedule: Q01DX005 (ip), vehicle: saline with Tween-80.

This is an account of results in PubChem BioAssay AID330 (DTP/NCI, 2004).

The structures appear in SMILES notation. Several values for one entry are separate records, joined by “and”; a condition that tells them apart may be missing. Equal entries are not always repeated. Toxic doses and inconclusive results are not listed.

Regarding `CCCCCCCCCCCCC[N+]1([O-])CCCCC1`, the T/C runs as follows: (dose: 12.5 mg/kg/injection, schedule: Q01DX009 (ip), vehicle: saline) 95 % of control; under setting [1], 92 % of control; under setting [2], 87 % of control and 89 % of control.
For the compound `CC1(C)CC(Nc2ncnc3c2ncn3C2OC(CO)C(O)C2O)CC(C)(C)N1O` (stereo unspecified), the T/C was 96 % of control under setting [2], 95 % of control under setting [3] and 94 % of control under setting [4].
As for `CNC1CC(C)(O)Cc2cc3c(c(O)c21)C(=O)c1c(O)cc2c(c1C3=O)OC1OC2(C)C(O)C(N(C)C)C1O` (stereo unspecified), the T/C (dose: 12.5 mg/kg/injection, schedule: Q01DX009 (ip), vehicle: other) is 153 % of control and the T/C (dose: 25.0 mg/kg/injection, schedule: Q01DX009 (ip), vehicle: other) is 158 % of control.
As to `N=C(N)c1ccc2oc(/C=C/c3nc4ccc(C(=N)N)cc4[nH]3)cc2c1`, the T/C is, setting by setting: under setting [5], 98 % of control; under setting [6], 96 % of control; under setting [7], 98 % of control.
`Nc1nc2c(c(=O)[nH]1)CNC2=O`: the T/C runs as follows: under setting [1], 112 % of control; under setting [2], 116 % of control; under setting [3], 113 % of control.
For `COc1cc2c3cc1Oc1cc(ccc1O)C[C@@H]1c4c(cc(OC)c(O)c4Oc4ccc(cc4)C[C@@H]3[N+](C)(C)CC2)CC[N+]1(C)C`, the T/C was 96 % of control (dose: 0.06 mg/kg/injection, schedule: Q01DX009 (ip), vehicle: saline with Tween-80); 92 % of control (dose: 0.13 mg/kg/injection, schedule: Q01DX009 (ip), vehicle: saline with Tween-80); 89 % of control (dose: 0.25 mg/kg/injection, schedule: Q01DX009 (ip), vehicle: saline with Tween-80).
As for `Cc1nnc2c3[nH]c4ccccc4c3c(Cl)nn12`, the T/C is 99 % of control under setting [8], 92 % of control under setting [9] and 98 % of control under setting [10].
As for `C1CCC(N2CSC3CCCCC32)CC1` (stereo unspecified), the T/C (dose: 60.0 mg/kg/injection, schedule: Q01DX005 (ip), vehicle: Klucel (hydroxypropylcellulose) (HPC)) was 95 % of control and the T/C (dose: 120.0 mg/kg/injection, schedule: Q01DX005 (ip), vehicle: Klucel (hydroxypropylcellulose) (HPC)) was 97 % of control.
On to `COc1cc2c(c(OC)c1OC)-c1ccc(SC)c(=O)cc1C(N(C)C(=O)C(F)(F)F)CC2` (stereo unspecified), for which the T/C is, setting by setting: (dose: 1.25 mg/kg/injection, schedule: Q01DX009 (ip), vehicle: Klucel (hydroxypropylcellulose) (HPC)) 109 % of control; (dose: 2.5 mg/kg/injection, schedule: Q01DX009 (ip), vehicle: Klucel (hydroxypropylcellulose) (HPC)) 111 % of control and 122 % of control; (dose: 20.0 mg/kg/injection, schedule: Q01DX009 (ip), vehicle: Klucel (hydroxypropylcellulose) (HPC)) 89 % of control.
Turning to `CC1CN2CC(C)O[Si](CC[Si]34OC(C)CN(CC(C)O3)CC(C)O4)(O1)OC(C)C2` (stereo unspecified), the T/C is, setting by setting: under setting [8], 108 % of control; under setting [9], 106 % of control; under setting [10], 105 % of control.
On to `C=C1C(=O)O[C@@H]2[C@H]1CC[C@H](C)[C@]1(O)CCC(=O)[C@@]21C`, for which the T/C runs as follows: (dose: 12.5 mg/kg/injection, schedule: Q01DX009 (ip), vehicle: Klucel (hydroxypropylcellulose) (HPC)) 112 % of control; (dose: 25.0 mg/kg/injection, schedule: Q01DX009 (ip), vehicle: Klucel (hydroxypropylcellulose) (HPC)) 114 % of control; (dose: 44.0 mg/kg/injection, schedule: Q01DX009 (ip), vehicle: Klucel (hydroxypropylcellulose) (HPC)) 115 % of control; under setting [11], 117 % of control; (dose: 67.0 mg/kg/injection, schedule: Q01DX009 (ip), vehicle: Klucel (hydroxypropylcellulose) (HPC)) 117 % of control; under setting [12], 117 % of control. Besides, the T/C (dose: 150.0 mg/kg/injection, schedule: Q01DX009 (ip), vehicle: Klucel (hydroxypropylcellulose) (HPC)) was 122 % of control.
As for `O=S(=O)(C1CC1c1ccccc1)C1CC1c1ccc(F)cc1` (stereo unspecified), the T/C by setting is: under setting [13], 100 % of control; under setting [14], 95 % of control; (dose: 200.0 mg/kg/injection, schedule: Q01DX005 (ip), vehicle: saline with Tween-80) 101 % of control.
For `CCCCCCC(=O)Oc1ccc[nH]c1=O`, the T/C is 104 % of control (dose: 25.0 mg/kg/injection, schedule: Q01DX009 (ip), vehicle: distilled water + Tween-80); 100 % of control (dose: 50.0 mg/kg/injection, schedule: Q01DX009 (ip), vehicle: distilled water + Tween-80); 97 % of control (dose: 100.0 mg/kg/injection, schedule: Q01DX009 (ip), vehicle: distilled water + Tween-80); 100 % of control (dose: 200.0 mg/kg/injection, schedule: Q01DX009 (ip), vehicle: distilled water + Tween-80); 100 % of control (dose: 400.0 mg/kg/injection, schedule: Q01DX009 (ip), vehicle: distilled water + Tween-80).
As to `Nc1cc2c(cc1O)C1C(C3C2C2(Cl)C(Cl)C(Cl)C3(Cl)C2(Cl)Cl)C2(Cl)C(Cl)C(Cl)C1(Cl)C2(Cl)Cl` (stereo unspecified), the T/C is, setting by setting: under setting [11], 100 % of control; under setting [12], 100 % of control; (dose: 200.0 mg/kg/injection, schedule: Q01DX009 (ip), vehicle: Klucel (hydroxypropylcellulose) (HPC)) 96 % of control.
Consider `O=NNc1ccnc(-c2cc(NN=O)ccn2)c1`, for which the T/C by setting is: (dose: 3.12 mg/kg/injection, schedule: Q01DX009 (ip), vehicle: water) 114 % of control; (dose: 6.25 mg/kg/injection, schedule: Q01DX009 (ip), vehicle: water) 120 % of control and 122 % of control; (dose: 100.0 mg/kg/injection, schedule: Q01DX009 (ip), vehicle: water) 87 % of control.
On to `CCOP(O)(=S)OCC.[Ho]`, for which the T/C runs as follows: under setting [5], 91 % of control; under setting [6], 88 % of control; under setting [7], 90 % of control.
Regarding `CCCCCCCCC1OC1CCCCCCCC(=O)O` (stereo unspecified), the T/C is 112 % of control (dose: 3.13 mg/kg/injection, schedule: Q01DX009 (ip), vehicle: saline with Tween-80); 100 % of control (dose: 6.25 mg/kg/injection, schedule: Q01DX009 (ip), vehicle: saline with Tween-80); 103 % of control (dose: 12.5 mg/kg/injection, schedule: Q01DX009 (ip), vehicle: saline with Tween-80); 95 % of control (dose: 25.0 mg/kg/injection, schedule: Q01DX009 (ip), vehicle: saline with Tween-80).
On to `O=C(NC1CCCCC1)C1C(=O)C(=O)N(C2CCCCC2)C1=O` (stereo unspecified), for which the T/C was 105 % of control under setting [13] and 98 % of control under setting [14].
Take `O=C1NC2CC1C(O)C2O` (stereo unspecified): the T/C reads like this: (dose: 60.0 mg/kg/injection, schedule: Q01DX005 (ip), vehicle: saline) 101 % of control; (dose: 120.0 mg/kg/injection, schedule: Q01DX005 (ip), vehicle: saline) 101 % of control; (dose: 240.0 mg/kg/injection, schedule: Q01DX005 (ip), vehicle: saline) 100 % of control.
As for `NC(=O)CCCC(C(N)=O)c1ccccc1` (stereo unspecified), the T/C is, setting by setting: under setting [5], 100 % of control; under setting [6], 105 % of control; under setting [7], 99 % of control.
With `C=C(Br)CC(N)C(=O)O` (stereo unspecified), the T/C under setting [8] was 116 % of control and the T/C under setting [9] is 106 % of control.
Take `N#Cc1c(Cl)c(Cc2ccccc2)c(Cl)n2c1nc1ccccc12`: the T/C runs as follows: (dose: 60.0 mg/kg/injection, schedule: Q01DX005 (ip), vehicle: saline with Tween-80) 100 % of control; (dose: 120.0 mg/kg/injection, schedule: Q01DX005 (ip), vehicle: saline with Tween-80) 108 % of control; (dose: 240.0 mg/kg/injection, schedule: Q01DX005 (ip), vehicle: saline with Tween-80) 99 % of control.
Turning to `CCOC(=O)c1ccc2c(c1)nc(-c1ccccn1)n2CCc1ccccn1`, the T/C (dose: 25.0 mg/kg/injection, schedule: Q01DX005 (ip), vehicle: Klucel (hydroxypropylcellulose) (HPC)) was 100 % of control and 102 % of control; the T/C under setting [8] is 98 % of control; the T/C under setting [9] is 100 % of control and 107 % of control; the T/C under setting [10] is 109 % of control and 110 % of control.
As to `CC(C)CC(NC(=O)C(N)Cc1c[nH]c2ccccc12)C(=O)O` (stereo unspecified), the T/C runs as follows: under setting [2], 96 % of control; under setting [3], 95 % of control; under setting [4], 118 % of control.
